According to ChEMBL document CHEMBL4680211, “Synthesis and structure-activity relationship study of water-soluble carbazole sulfonamide derivatives as new anticancer agents” (Eur J Med Chem, 2020):

Assays:
[1] = Toxicity in human HepG2 cells xenografted BALB/c nude mouse assessed as change in tumor weight at 50 to 100 mg/kg for 29 days; type: organism-based; conditions: in vivo, 696 h, dose 50-100 mg/kg, time 29 day
[2] = Acute toxicity in po dosed Kunming mouse measured for 7 days; type: organism-based; conditions: in vivo, time 7 day
Bel-7402 = assay: Antiproliferative activity against human Bel-7402 cells measured after 48 hrs by SRB assay; type: functional, cell-based; conditions: Homo sapiens, Bel-7402, 48 h
MCF7 = assay: Antiproliferative activity against human MCF7 cells measured after 48 hrs by SRB assay; type: functional, cell-based; conditions: Homo sapiens, MCF7, 48 h
HepG2 [3] = assay: Antitumor activity against human HepG2 cells xenografted in BALB/c nude mouse assessed as reduction in tumor volume at 100 mg/kg administered for 29 days by caliper method relative to control; type: functional; set-up: scale not given: the % may be the effect or the level left; conditions: time 29 day
HepG2 [4] = assay: Antiproliferative activity against human HepG2 cells measured after 48 hrs by SRB assay; type: functional, cell-based; conditions: Homo sapiens, HepG2, 48 h
HepG2 [5] = assay: Antitumor activity against human HepG2 cells xenografted in BALB/c nude mouse assessed as reduction in tumor volume at 50 mg/kg administered for 29 days by caliper method relative to control; type: functional; set-up: scale not given: the % may be the effect or the level left; conditions: time 29 day
[6] = Toxicity in human MDA-MB-231 cells xenografted BALB/c nude mouse assessed as effect on body weight at 60 mg/kg, ip biw for 14 to 29 days measured every two days during compound dosing; type: organism-based; conditions: in vivo, time 14-29 day
HepG2 [7] = assay: Antitumor activity against human HepG2 cells xenografted in BALB/c nude mouse assessed as tumor growth inhibition at 10 mg/kg, iv administered once per week for 29 days by caliper method relative to control; type: functional; set-up: scale not given: the % may be the effect or the level left; conditions: time 29 day
MDA-MB-231 = assay: Antitumor activity against human MDA-MB-231 cells xenografted in BALB/c nude mouse assessed as reduction in tumor burden at 60 mg/kg, ip biw for 14 to 29 days relative to control; type: functional; set-up: scale not given: the % may be the effect or the level left; conditions: time 14-29 day
[8] = Toxicity in GFP-labelled human HepG2 cells xenografted BALB/c nude mouse assessed as change in animal weight at 10 mg/kg, iv administered once per week for 29 days; type: organism-based; conditions: in vivo, 696 h, time 29 day
HepG2 [9] = assay: Antitumor activity against GFP-labelled human HepG2 cells xenografted in BALB/c nude mouse assessed as tumor growth inhibition at 10 mg/kg, iv administered once per week for 29 days relative to control; type: functional; conditions: 696 h, time 29 day, read-out: TGI
[10] = Volume of distribution at steady state in Sprague-Dawley rat at 2.5 mg/kg, iv; type: ADME, organism-based; conditions: in vivo, read-out: Vdss
[11] = Acute toxicity in ip dosed Kunming mouse measured for 7 days; type: organism-based; conditions: in vivo, time 7 day
[12] = AUC (0 to last) in Sprague-Dawley rat at 2.5 mg/kg, iv; type: ADME, organism-based; set-up: time 0 - last, route intravenous, dose 2.5 mg/kg; conditions: in vivo
[13] = MRT (0 to last) in Sprague-Dawley rat at 2.5 mg/kg, iv; type: ADME, organism-based; conditions: in vivo
[14] = Elimination half life in Sprague-Dawley rat at 2.5 mg/kg, iv; type: ADME, organism-based; conditions: in vivo, read-out: beta t1/2 (converted)
HepG2 [15] = assay: Antitumor activity against human HepG2 cells xenografted in BALB/c nude mouse assessed as tumor growth inhibition at 25 mg/kg, ip qod for 29 days by caliper method relative to control; type: functional; conditions: 696 h, time 29 day, read-out: TGI
[16] = MRT (0 to last) in Sprague-Dawley rat assessed as N-(2,6-dimethoxypyridin-3-yl)-7-hydroxy-9-methyl-9H-carbazole-3-sulfonamide level at 2.5 mg/kg, iv; type: ADME, organism-based; conditions: in vivo
[17] = Tmax in Sprague-Dawley rat assessed as N-(2,6-dimethoxypyridin-3-yl)-7-hydroxy-9-methyl-9H-carbazole-3-sulfonamide level at 2.5 mg/kg, iv; type: ADME, organism-based; conditions: in vivo
[18] = Cmax in Sprague-Dawley rat assessed as N-(2,6-dimethoxypyridin-3-yl)-7-hydroxy-9-methyl-9H-carbazole-3-sulfonamide level at 2.5 mg/kg, iv; type: ADME, organism-based; set-up: route intravenous, dose 2.5 mg/kg; conditions: in vivo
[19] = AUC (0 to last) in Sprague-Dawley rat assessed as N-(2,6-dimethoxypyridin-3-yl)-7-hydroxy-9-methyl-9H-carbazole-3-sulfonamide level at 2.5 mg/kg, iv; type: ADME, organism-based; set-up: route intravenous, time 0 - last, dose 2.5 mg/kg; conditions: in vivo
[20] = Terminal half life in Sprague-Dawley rat assessed as N-(2,6-dimethoxypyridin-3-yl)-7-hydroxy-9-methyl-9H-carbazole-3-sulfonamide level at 2.5 mg/kg, iv; type: ADME, organism-based; conditions: in vivo
HepG2 [21] = assay: Antitumor activity against GFP-labelled human HepG2 cells xenografted in BALB/c nude mouse assessed as tumor growth inhibition at 10 mg/kg, iv qod for 29 days relative to control; type: functional; conditions: 696 h, time 29 day, read-out: TGI
HepG2 [22] = assay: Antitumor activity against human HepG2 cells xenografted in BALB/c nude mouse assessed as tumor volume at 10 mg/kg, iv qod for 14 to 29 days measured on day 1 (reference value: 154.04 +/- 3120); type: functional; conditions: time 14-29 day
[23] = Acute toxicity in Kunming mouse assessed as survival at 40 mg/kg, iv measured for 7 days relative to control; type: organism-based; conditions: in vivo, time 7 day
[24] = Toxicity in GFP-labelled human HepG2 cells xenografted BALB/c nude mouse assessed as change in animal weight at 10 mg/kg, iv qod for 29 days; type: organism-based; conditions: in vivo, 696 h, time 29 day
[25] = Toxicity in human HepG2 cells xenografted BALB/c nude mouse assessed as change in tumor weight at 10 mg/kg, iv qod for 14 to 29 days (reference value: 4.52 g); type: organism-based; conditions: in vivo, time 14-29 day
HepG2 [26] = assay: Antitumor activity against human HepG2 cells xenografted in BALB/c nude mouse assessed as tumor growth inhibition at 10 mg/kg, iv qod for 14 to 29 days relative to control; type: functional; conditions: time 14-29 day, read-out: TGI
[27] = Acute toxicity in Kunming mouse assessed as survival at 100 mg/kg, iv measured for 7 days relative to control; type: organism-based; conditions: in vivo, time 7 day
[28] = Acute toxicity in Kunming mouse assessed as survival at 60 mg/kg, iv measured for 7 days relative to control; type: organism-based; conditions: in vivo, time 7 day
[29] = Acute toxicity in Kunming mouse assessed as survival at 80 mg/kg, iv measured for 7 days relative to control; type: organism-based; conditions: in vivo, time 7 day
[30] = Acute toxicity in iv dosed Kunming mouse measured for 7 days; type: organism-based; conditions: in vivo, time 7 day
HepG2 [31] = assay: Antitumor activity against human HepG2 cells xenografted in BALB/c nude mouse assessed as tumor volume at 10 mg/kg, iv qod for 14 to 29 days measured on day 29 (reference value: 2,838.93 +/- 737.40); type: functional; conditions: time 14-29 day
HepG2 [32] = assay: Antitumor activity against human HepG2 cells xenografted in BALB/c nude mouse assessed as tumor growth inhibition at 5 mg/kg, iv qod for 14 to 29 days relative to control; type: functional; conditions: time 14-29 day, read-out: TGI

For COc1ccc(N(CCOP(=O)([O-])[O-])S(=O)(=O)c2ccc3c(c2)c2ccccc2n3C)c(OC)n1.[Na+].[Na+], the Activity [1] was “Non-Toxic”, the LD50 at 168 h [2] was 273 mg/kg and the IC50 (Bel-7402) was 1970 nM. It also gave an IC50 (MCF7) of 1080 nM, an Activity (HepG2 [3]) of 70.1% and an IC50 (HepG2 [4]) of 1120 nM. For the same molecule, the Activity (HepG2 [5]) was 54.5%.
With CC(=O)O[C@H]1C(=O)[C@@]2(C)[C@H]([C@H](OC(=O)c3ccccc3)[C@]3(O)C[C@H](OC(=O)[C@H](O)[C@@H](NC(=O)c4ccccc4)c4ccccc4)C(C)=C1C3(C)C)[C@]1(OC(C)=O)CO[C@@H]1C[C@@H]2O [PACLITAXEL] the Activity [6] was “Non-Toxic”, the Activity (HepG2 [7]) was 59.6% and the Activity (MDA-MB-231) was 36%. The Activity [8] was “Non-Toxic” and the inhibition in vivo at 10 mg/kg (HepG2 [9]) was 99.4%.
In the case of COc1ccc(NS(=O)(=O)c2ccc3c(c2)c2ccc(OP(=O)([O-])[O-])cc2n3C)c(OC)n1.[Na+].[Na+], the Vd [10] is reported as 0.24 L/kg, the LD50 at 168 h [11] is reported as 273 mg/kg and the IC50 (Bel-7402) is reported as 60 nM. The IC50 (MCF7) was 16 nM, the AUClast [12] was 18449 ng·h/mL and the IC50 (HepG2 [4]) was 19 nM. The MRT last [13] was 10.2 min, the half-life [14] was 43.2 min and the inhibition in vivo at 25 mg/kg (HepG2 [15]) was 71.7%.
Molecule COc1ccc(NS(=O)(=O)c2ccc3c(c2)c2ccc(O)cc2n3C)c(OC)n1 has an MRTlast [16] of 76.2 min, a Tmax [17] of 5 min and an IC50 (Bel-7402) of 56 nM. It also gave an IC50 (MCF7) of 14 nM, a Cmax [18] of 22333 ng/mL and an IC50 (HepG2 [4]) of 12 nM. For the same molecule, the AUClast [19] was 15295 ng·h/mL and the “beta t1/2” value [20] was 108 min.
COc1ccc(N(CCN2CCN(C)CC2)S(=O)(=O)c2ccc3c(c2)c2ccccc2n3C)c(OC)n1 showed an inhibition in vivo at 10 mg/kg (HepG2 [21]) of 60.2%, an Activity (HepG2 [22]) of 92.29 mm3 and a survival at 168 h [23] of 100%. For the same molecule, the Activity [24] was “Non-Toxic”, the IC50 (Bel-7402) was 6060 nM and the Activity [25] was 1.44 g. For the same molecule, the inhibition in vivo at 10 mg/kg (HepG2 [26]) was 48.3%, the IC50 (MCF7) was 15000 nM and the survival at 168 h [27] was 16.7%. The survival at 168 h [28] was 100%, the survival at 168 h [29] was 83.3% and the IC50 (HepG2 [4]) was 4130 nM. It also gave an LD50 at 168 h [30] of 89.5 mg/kg, an Activity (HepG2 [31]) of 914.19 mm3 and an inhibition in vivo at 5 mg/kg (HepG2 [32]) of 33.3%.
